“Also recorded” adds a separate entry of the source. Read-outs that look alike come from different tables or passages of the source.
Experiments:
[1] = system: intracerebral amount of Aβ; assay: Assessment of β-amyloid protein production inhibitory action and immunosuppressing action in vivo; conditions: male SD rats, oral, single dose, cerebrum Aβ after 3 hours, repeated administration for 7 days for immunosuppression
Description: As an example of the compound (1), the compounds described in Example 22, Example 85, Example 101, Example 106 or Example 118 (respectively, compound represented by the above formula (1-1), (1-2), (1-3), (1-4) or (1-5), which will be hereinafter referred respectively to compound (1-1), (1-2), (1-3), (1-4) or (1-5)), or the control compound LY, was suspended in a 0.5% aqueous solution of methylcellulose, and the suspension was orally administered in a single dose to male SD rats (about 5 weeks old). For the solvent control group, a 0.5% aqueous solution of methylcellulose was administered alone. After 3 hours of administration, the brain was excised, and the cerebrum was collected. The cerebrum was homogenized with a 42% aqueous solution of formic acid, and was centrifuged at 100,000×g for 60 minutes. The resulting supernatant was neutralized with 1 M Tris, and the Aβ concentration in these samples were measured using the sandwich type ELISA method as described in Test Example 1. Furthermore, the compound (1-1) to (1-5) or control compound LY was orally administered to male SD rats repeatedly for 7 days, and the rats were subjected to histopathological and serological examinations, so as to assess the immunosuppressing effect of the compound.

[2] = system: β-amyloid protein (Aβ) secreted by E35 cells (H4 cells with APP751 gene); assay: Screening system using E35 cells for inhibition of production/secretion of β-amyloid protein (sandwich ELISA of Aβ in culture medium); type: cell-based, human; conditions: 24 hours with compound, Aβ in culture supernatant by ELISA, read-out: Inhibitory Activity for Production of A(EC50)
Description: The activity of the compound inhibiting β-amyloid protein production was measured on E35 cells prepared by introducing APP751 gene, a gene of a human wild type β-amyloid protein precursor protein, to human glioma cells (H4 cells), by quantifying the amount of β-amyloid protein (Aβ) secreted to the culture medium by means of a sandwich type Enzyme-Linked Immunosorbent Assay (ELISA) method.
That is, E35 cells inoculated on a 96-well plate were cultured in an incubator at 37° C. which was maintained at equilibrium with 5% carbon dioxide, using Dulbecco's Modified Eagle's Medium containing inactivated 10% fetal bovine serum as the culture medium. After 24 hours from the inoculation, a test compound dissolved in a DMSO solution was added. The DMSO solution of the test compound was prepared at a concentration of 2000 times of the final concentration, such that the DMSO concentration in the culture medium would be 0.05%. After culturing for another 24 hours, the culture supernatant was recovered, and this was added to a 96-well plate for ELISA onto which a monoclonal antibody against Aβ, 25-1, was solid-phased. The plate was incubated at 4° C. for 16 to 20 hours. The plate was washed with phosphate buffer solution (pH 7.4), and then a biotinylated monoclonal antibody against Aβ, MA32-40, was added thereto. The plate was left to stand at 4° C. for 2 hours. The plate was washed again with phosphate buffer solution, and then alkaline phosphatase-conjugated streptavidin was added to conjugate streptavidin to biotin. Subsequently, the plate was washed with phosphate buffer solution. To this, Blue Phos (Kirkegaard & Perry Laboratories, Inc.) was added. After incubating the plate for an appropriate time, the reaction was terminated with an acid, and the absorbance for each well was measured. The amount of Aβ contained in the culture supernatant was determined from a calibration curve which was produced separately, and the amount was compared with that of control cells to which the compound was not added. Thus, the concentration at which 50% of the Aβ production is inhibited (EC50 value) was calculated. In addition, the 25-1 antibody and MA32-40 antibody used in ELISA were mouse monoclonal antibodies derived from the hybridoma cell clone lines, which were each produced and selected according to a standard method using Aβ25-35 and Aβ1-8 as antigens, respectively, and which specifically recognize their respective antigens. […]
The scores indicate ++++ for the case where EC50 was 5 nM or less; +++ for the case where EC50 was 5 to 50 nM; ++ for the case where EC50 was 50 to 500 nM; and + for the case where EC50 was 500 nM to 5 μM.

For `Cc1cc(C(=O)NCO)ncc1C(c1c(F)ccc(F)c1F)S(=O)(=O)c1ccccc1` (centres unmarked) [Example 106, N-(1-hydroxymethyl)-4-methyl-5-[(phenylsulfonyl)(2,3,6-trifluorophenyl)methyl]pyridine-2-carboxamide], the “difference between the dose exhibiting a statistically significant decrease in the intracerebral amount of Aβ and the dose exhibiting an immunosuppressing effect” value ([1]; listed as (1-4)) was “sufficient differences were recognized” and the EC50 ([2]; Homo sapiens) was no more than 5 nM.

With `Cc1cc(C(=O)NCO)ncc1C(c1c(F)ccc(F)c1F)S(=O)(=O)c1ccc(C(F)(F)F)nc1` (centres unmarked) [Example 118, N-(1-hydroxymethyl)-4-methyl-5-[[[6-(trifluoromethyl)pyridin-3-yl]sulfonyl](2,3,6-trifluorophenyl)methyl]pyridine-2-carboxamide] the “difference between the dose exhibiting a statistically significant decrease in the intracerebral amount of Aβ and the dose exhibiting an immunosuppressing effect” value ([1]; listed as (1-5)) was “sufficient differences were recognized”, the EC50 ([2]; Homo sapiens) was no more than 5 nM and the melting point was 181 to 182 °C.

For `Cc1cc(C(=O)NCO)ncc1C(c1c(F)ccc(F)c1F)S(=O)(=O)c1ccc(Cl)cc1` (centres unmarked) [Example 120, 5-[[(4-Chlorophenyl)sulfonyl](2,3,6-trifluorophenyl)methyl]-N-(hydroxymethyl)-4-methylpyridine-2-carboxamide], the EC50 ([2]; Homo sapiens) was no more than 5 nM and the melting point was 177 to 178 °C.

Work on `CNC(=O)c1cc(C)c(C(c2cc(F)ccc2F)S(=O)(=O)c2ccc(Cl)cc2)cn1` (centres unmarked) [Example 4, 5-[[(4-Chlorophenyl)sulfonyl](2,5-difluorophenyl)methyl]-N,4-dimethylpyridine-2-carboxamide] yielded an EC50 ([2]; Homo sapiens) of no more than 5 nM and a melting point of 200 to 201 °C.

For `Cc1cc(C(=O)NCCC[S+](C)[O-])ncc1C(c1cc(F)ccc1F)S(=O)(=O)c1ccc(F)cc1` (centres unmarked) [Example 73, 5-[(2,5-Difluorophenyl)[(4-fluorophenyl)sulfonyl]methyl]-4-methyl-N-[3-(methylsulfinyl)propyl]pyridine-2-carboxamide], the EC50 ([2]; Homo sapiens) was no more than 5 nM and the melting point was 170 to 173 °C.

In the case of `Cc1cc(C(=O)NCCO)ncc1C(c1c(F)ccc(F)c1F)S(=O)(=O)c1ccc(F)cc1` (centres unmarked) [Example 94, 5-[[(4-Fluorophenyl)sulfonyl](2,3,6-trifluorophenyl)methyl]-N-(2-hydroxyethyl)-4-methylpyridine-2-carboxamide], the EC50 ([2]; Homo sapiens) is reported as no more than 5 nM and the melting point is reported as 164 to 165 °C.

With `CC(C)[C@H](O)C(=O)N[C@@H](C)C(=O)N[C@@H]1C(=O)N(C)CCc2ccccc21` [LY, (N)—((S)-2-hydroxy-3-methyl-butyryl)-1-(L-alaninyl)-(S)-1-amino-3-methyl-4,5,6,7-tetrahydro-2H-3-benzoazepin-2-one, reference compound] the “difference between the dose exhibiting a statistically significant decrease in the intracerebral amount of Aβ and the dose exhibiting an immunosuppressing effect” value [1] was “no sufficient difference was recognized” and the EC50 [2] was 5 to 50 nM.

In the case of `Cc1cc(C(=O)NCO)ncc1C(c1c(F)ccc(F)c1F)S(=O)(=O)c1ccc(F)cc1` (centres unmarked) [Example 101, 5-[[(4-Fluorophenyl)sulfonyl](2,3,6-trifluorophenyl)methyl]-N-(1-hydroxymethyl)-4-methylpyridine-2-carboxamide], the “difference between the dose exhibiting a statistically significant decrease in the intracerebral amount of Aβ and the dose exhibiting an immunosuppressing effect” value ([1]; listed as (1-3)) is reported as “sufficient differences were recognized” and the EC50 ([2]; Homo sapiens) is reported as no more than 5 nM.

For `Cc1cc(C(=O)N(C)C)ncc1C(c1cc(F)ccc1F)[S+]([O-])c1ccc(F)cc1` (centres unmarked) [Example 22, 5-[(2,5-Difluorophenyl)[(4-fluorophenyl)sulfinyl]methyl]-N,N,4-trimethylpyridine-2-carboxamide], the “difference between the dose exhibiting a statistically significant decrease in the intracerebral amount of Aβ and the dose exhibiting an immunosuppressing effect” value ([1]; listed as (1-1)) was “sufficient differences were recognized; also recorded: sufficient difference” and the EC50 ([2]; Homo sapiens) was 500 to 5000 nM.

In the case of `Cc1cc(C(=O)NCCO)ncc1C(c1cc(F)ccc1F)S(=O)(=O)c1ccc(F)cc1` (centres unmarked) [Example 17, 5-[(2,5-Difluorophenyl)[(4-fluorophenyl)sulfonyl]methyl]-N-(2-hydroxyethyl)-4-methylpyridine-2-carboxamide], the EC50 ([2]; Homo sapiens) is reported as no more than 5 nM and the melting point is reported as 153 to 154 °C.

Work on `CONC(=O)c1cc(C)c(C(c2cc(F)ccc2F)S(=O)(=O)c2ccc(F)cc2)cn1` (centres unmarked) [Example 78, 5-[(2,5-Difluorophenyl)[(4-fluorophenyl)sulfonyl]methyl]-N-methoxy-4-methylpyridine-2-carboxamide] yielded an EC50 ([2]; Homo sapiens) of 5 to 50 nM and a melting point of 231 to 234 °C.

In the case of `COc1ccc(S(=O)(=O)C(c2cnc(C(=O)NCCO)cc2C)c2cc(F)ccc2F)cc1F` (centres unmarked) [Example 47, 5-[(2,5-Difluorophenyl)[(3-fluoro-4-methoxyphenyl)sulfonyl]methyl]-N-(2-hydroxyethyl)-4-methylpyridine-2-carboxamide], the EC50 ([2]; Homo sapiens) is reported as 5 to 50 nM and the melting point is reported as 137 to 138 °C.

For `CCNC(=O)c1cc(C)c(C(c2cc(F)ccc2F)S(=O)(=O)c2ccc(F)cc2)cn1` (centres unmarked) [Example 16, 5-[(2,5-Difluorophenyl)[(4-fluorophenyl)sulfonyl]methyl]-N-ethyl-4-methylpyridine-2-carboxamide], the EC50 ([2]; Homo sapiens) was no more than 5 nM and the melting point was 191 to 193 °C.

In the case of `Cc1cc(C(=O)N(C)C)ncc1C(c1cc(F)ccc1F)S(=O)(=O)c1ccc(F)cc1` (centres unmarked) [Example 14, 5-[(2,5-Difluorophenyl)[(4-fluorophenyl)sulfonyl]methyl]-N,N,4-trimethylpyridine-2-carboxamide], the EC50 ([2]; Homo sapiens) is reported as 50 to 500 nM and the melting point is reported as 176 to 177 °C.

With `Cc1cc(C(N)=O)ncc1C(c1cc(F)ccc1F)S(=O)(=O)c1ccc(Cl)cc1` (centres unmarked) [Example 9, 5-[[(4-Chlorophenyl)sulfonyl](2,5-difluorophenyl)methyl]-4-methylpyridine-2-carboxamide] the EC50 ([2]; Homo sapiens) was no more than 5 nM and the melting point was 241 to 242 °C.

`Cc1cc(C(=O)N(C)CCO)ncc1C(c1cc(F)ccc1F)S(=O)(=O)c1ccc(F)cc1` (centres unmarked) [Example 19, 5-[(2,5-Difluorophenyl)[(4-fluorophenyl)sulfonyl]methyl]-N-(2-hydroxyethyl)-N,4-dimethylpyridine-2-carboxamide] showed an EC50 ([2]; Homo sapiens) of 500 to 5000 nM and a melting point of 123 to 125 °C.

Compound `Cc1cc(C(N)=O)ncc1C(c1c(F)ccc(F)c1F)S(=O)(=O)c1ccc(OC(F)(F)F)cc1` (centres unmarked) [Example 123, 4-Methyl-5-[[[4-(trifluoromethoxy)phenyl]sulfonyl](2,3,6-trifluorophenyl)methyl]pyridine-2-carboxamide] has an EC50 ([2]; Homo sapiens) of no more than 5 nM and a melting point of 219 to 220 °C.

With `Cc1cc(C(=O)NCO)ncc1C(c1cc(F)ccc1F)S(=O)(=O)c1ccc(F)cc1` (centres unmarked) [Example 85, 5-[(2,5-difluorophenyl)[(4-fluorophenyl)sulfonyl]methyl]-N-(1-hydroxymethyl)-4-methylpyridine-2-carboxamide] the “difference between the dose exhibiting a statistically significant decrease in the intracerebral amount of Aβ and the dose exhibiting an immunosuppressing effect” value ([1]; listed as (1-2)) was “sufficient differences were recognized”, the EC50 ([2]; Homo sapiens) was no more than 5 nM and the melting point was 164 to 166 °C.

From patent US8114886B2, “Pyridylmethylsulfone derivative” (Daiichi Sankyo Company, Limited, priority 2005, dated 2012)
